# Values of other authors as cited in paper PMC11235333, “Glucagon-like peptide-1 stimulates acute secretion of pro-atrial natriuretic peptide from the isolated, perfused pig lung exposed to warm ischemia” (Frontiers in Transplantation, 2022).
# Tested on: lipopolyssacharide induced endotoxemia in rats
# Details: lipopolysaccharide induced endotoxemia, after 3 h, ref Yanay et al.
# Experimental: In studies with 24 h EVLP and transplantation of donor lungs, a rise of IL-8 concentration, proportional to the duration of warm ischaemia, was observed ([78], [79]). In the majority of studies investigating the anti-inflammatory effects of GPL-1 in the lungs, treatment was given more than 6 ...
substance,measurement,value
exendin-4,Inflammatory cytokines,"decreased IL-1α, IL-1β, IL-6, TNFα and IFNγ but not IL-10"
